In patent US10696672B2 (Pliant Therapeutics, Inc., priority 2016, dated 2020):

Each molecule was assayed against recombinant human integrin αvβ6 (Homo sapiens (Human), UniProt P06756+P18564) (assay: Solid phase integrin αvβ6 binding assay). Conditions: plate-coated integrin; recombinant TGFβ1 LAP 0.67 ug/ml as ligand; 2 hours at 25° C.; read-out: αvβ6 Inhibition IC50 (nM) - range.
Method: Example B1—Solid Phase Integrin αvβ6 Binding Assay
Microplates were coated with recombinant human integrin αvβ6 (2 ug/ml) in PBS (100 ul/well 25° C., overnight). The coating solution was removed, washed with wash buffer (0.05% Tween 20; 0.5 mM MnCl2; in 1×TBS). Plate was blocked with 200 ul/well of Block Buffer (1% BSA; 5% sucrose; 0.5 mM MnCl2; in 1×TBS) at 37° C. for 2 h. Dilutions of testing compounds and recombinant TGFβ1 LAP (0.67 ug/ml) in binding buffer (0.05% BSA; 2.5% sucrose; 0.5 mM MnCl2; in 1×TBS) were added. The plate was incubated for 2 hours at 25° C., washed, and incubated for 1 hour with Biotin-Anti-hLAP. Bound antibody was detected by peroxidase-conjugated streptavidin. The IC50 values for testing compounds were calculated by a four-parameter logistic regression.
The compounds tested were compound samples prepared according to procedures described in the Synthetic Examples section, with the stereochemical purity as indicated in the Examples indicated.

recombinant human integrin αvβ6, sequence (P06756 31-992): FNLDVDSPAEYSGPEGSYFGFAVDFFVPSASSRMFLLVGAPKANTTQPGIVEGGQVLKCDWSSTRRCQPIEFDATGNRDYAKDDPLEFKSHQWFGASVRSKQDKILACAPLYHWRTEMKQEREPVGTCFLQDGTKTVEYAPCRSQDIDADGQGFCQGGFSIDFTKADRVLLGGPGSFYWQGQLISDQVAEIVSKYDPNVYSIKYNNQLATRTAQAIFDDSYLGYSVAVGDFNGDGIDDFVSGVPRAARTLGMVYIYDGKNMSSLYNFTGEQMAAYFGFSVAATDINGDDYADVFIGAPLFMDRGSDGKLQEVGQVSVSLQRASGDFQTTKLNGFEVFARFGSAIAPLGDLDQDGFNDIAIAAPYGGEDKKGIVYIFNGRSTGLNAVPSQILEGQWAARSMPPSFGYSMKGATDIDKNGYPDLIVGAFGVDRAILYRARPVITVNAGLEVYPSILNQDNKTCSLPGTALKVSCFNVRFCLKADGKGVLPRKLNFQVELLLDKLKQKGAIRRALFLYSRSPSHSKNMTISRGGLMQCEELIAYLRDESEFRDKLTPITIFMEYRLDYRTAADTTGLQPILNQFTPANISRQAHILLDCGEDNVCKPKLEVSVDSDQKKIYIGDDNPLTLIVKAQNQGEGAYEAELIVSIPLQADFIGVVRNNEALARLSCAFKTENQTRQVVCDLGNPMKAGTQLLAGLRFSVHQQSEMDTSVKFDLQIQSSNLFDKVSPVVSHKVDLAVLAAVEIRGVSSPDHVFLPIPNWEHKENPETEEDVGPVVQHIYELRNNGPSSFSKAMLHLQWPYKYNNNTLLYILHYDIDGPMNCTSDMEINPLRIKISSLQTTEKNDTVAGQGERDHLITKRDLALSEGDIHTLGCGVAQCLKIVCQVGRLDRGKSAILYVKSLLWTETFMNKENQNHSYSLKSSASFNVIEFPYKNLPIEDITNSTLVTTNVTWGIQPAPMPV
recombinant human integrin αvβ6, sequence (P18564 22-707): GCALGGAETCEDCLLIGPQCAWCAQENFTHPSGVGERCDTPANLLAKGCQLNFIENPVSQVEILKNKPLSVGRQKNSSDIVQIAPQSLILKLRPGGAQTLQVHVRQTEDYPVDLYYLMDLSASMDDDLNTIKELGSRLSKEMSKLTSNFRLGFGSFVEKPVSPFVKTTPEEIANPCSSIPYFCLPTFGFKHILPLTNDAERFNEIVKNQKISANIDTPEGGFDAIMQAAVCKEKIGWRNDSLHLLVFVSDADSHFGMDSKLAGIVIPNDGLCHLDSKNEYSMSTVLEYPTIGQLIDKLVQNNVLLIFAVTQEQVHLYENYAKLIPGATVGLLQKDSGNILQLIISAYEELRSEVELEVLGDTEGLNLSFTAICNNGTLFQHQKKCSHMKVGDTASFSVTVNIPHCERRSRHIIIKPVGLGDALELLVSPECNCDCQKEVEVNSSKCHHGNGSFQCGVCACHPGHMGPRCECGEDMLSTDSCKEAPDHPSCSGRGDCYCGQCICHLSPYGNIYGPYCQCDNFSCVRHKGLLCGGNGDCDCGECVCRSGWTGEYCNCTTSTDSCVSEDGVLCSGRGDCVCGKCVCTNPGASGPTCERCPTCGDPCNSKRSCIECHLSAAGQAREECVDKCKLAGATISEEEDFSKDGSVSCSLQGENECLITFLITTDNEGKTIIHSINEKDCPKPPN

| Compound | IC50 [nM] |
| --- | --- |
| Cn1ncc2cccc(C(=O)N[C@@H](CCN3CC[C@@H](CCc4ccc5c(n4)NCCC5)C3)C(=O)O)c21 [Compound 28a, (S)-2-(1-methyl-1H-indazole-7-carboxamido)-4-((R)-3-(2-(5,6,7,8-tetrahydro-1,8-naphthyridin-2-yl)ethyl)pyrrolidin-1-yl)butanoic acid] | < 50 |
| O=C(N[C@@H](CCN1CC[C@@H](CCc2ccc3c(n2)NCCC3)C1)C(=O)O)c1ccc2cnn(C(F)F)c2c1 [Compound 29a, (S)-2-(1-(difluoromethyl)-1H-indazole-6-carboxamido)-4-((R)-3-(2-(5,6,7,8-tetrahydro-1,8-naphthyridin-2-yl)ethyl)pyrrolidin-1-yl)butanoic acid] | < 50 |
| O=C(N[C@@H](CCN1CC[C@@H](CCc2ccc3c(n2)NCCC3)C1)C(=O)O)c1ccc2c(cnn2C(F)F)c1 [Compound 30a, (S)-2-(1-(difluoromethyl)-1H-indazole-5-carboxamido)-4-((R)-3-(2-(5,6,7,8-tetrahydro-1,8-naphthyridin-2-yl)ethyl)pyrrolidin-1-yl)butanoic acid] | < 50 |
| O=C(NC1CCN(CC[C@H](NC(=O)C2CCC(F)(F)CC2)C(=O)O)CC1)c1ccc2c(n1)NCCC2 [Compound 33] | > 1000 |
| O=C(N[C@@H](CCN1CC[C@@H](CCc2ccc3c(n2)NCCC3)C1)C(=O)O)c1cccc2[nH]ncc12 [Compound 35] | < 50 |
| CC(C)(C(=O)N[C@@H](CCN1CC[C@@H](CCc2ccc3c(n2)NCCC3)C1)C(=O)O)c1cccnc1 [Compound 37] | < 50 |
| O=C(N[C@@H](CCN1CC(CCc2ccc3c(n2)NCCC3)C(F)(F)C1)C(=O)O)c1ccccc1 (stereo partly drawn) [Compound 39] | 50 to 250 |
| CC(C)(C)OC(=O)N[C@@H](CCN1CC(CCc2ccc3c(n2)NCCC3)CC(F)(F)C1)C(=O)O (stereo partly drawn) [Compound 40] | 250 to 1000 |
| O=C(N[C@@H](CCN1CC(CCc2ccc3c(n2)NCCC3)CC(F)(F)C1)C(=O)O)c1ccccc1 (stereo partly drawn) [Compound 41] | 50 to 250 |
| Cc1cc(C)n(-c2cccc(C(=O)N[C@@H](CCN3CC(CCc4ccc5c(n4)NCCC5)CC(F)(F)C3)C(=O)O)c2)n1 (stereo partly drawn) [Compound 42] | 250 to 1000 |
| Cn1nccc1C(=O)N[C@@H](CCN1CC[C@@H](CCc2ccc3c(n2)NCCC3)C1)C(=O)O [Compound 49] | < 50 |
| O=C(N[C@@H](CCN1CC[C@@H](CCc2ccc3c(n2)NCCC3)C1)C(=O)O)c1cnccn1 [Compound 50] | < 50 |
| O=C(N[C@@H](CCN1CCC[C@@](F)(CCc2ccc3c(n2)NCCC3)C1)C(=O)O)c1ccccc1 [Compound 52] | 50 to 250 |
| Cc1cc(C)n(-c2cccc(C(=O)N[C@@H](CCN3CCC[C@@](F)(CCc4ccc5c(n4)NCCC5)C3)C(=O)O)c2)n1 [Compound 53] | < 50 |
| O=C(N[C@@H](CCN1CC[C@@H](CCc2ccc3c(n2)NCCC3)C1)C(=O)O)c1cccc(-c2cccs2)c1 [Compound 55] | < 50 |
| Cn1nccc1-c1cccc(C(=O)N[C@@H](CCN2CC[C@@H](CCc3ccc4c(n3)NCCC4)C2)C(=O)O)c1 [Compound 57] | < 50 |
| Cn1cc(-c2cccc(C(=O)N[C@@H](CCN3CC[C@@H](CCc4ccc5c(n4)NCCC5)C3)C(=O)O)c2)cn1 [Compound 58] | < 50 |
| O=C(N[C@@H](CCN1CC[C@@H](CCc2ccc3c(n2)NCCC3)C1)C(=O)O)c1cccc(-c2ncco2)c1 [Compound 59] | < 50 |
| CC(C)n1ncc2c(C(=O)N[C@@H](CCN3CC[C@@H](CCc4ccc5c(n4)NCCC5)C3)C(=O)O)cccc21 [Compound 60] | < 50 |
| CC(C)Cn1ncc2c(C(=O)N[C@@H](CCN3CC[C@@H](CCc4ccc5c(n4)NCCC5)C3)C(=O)O)cccc21 [Compound 61] | < 50 |

| Compound | IC50 [nM] |
| --- | --- |
| O=C(N[C@@H](CCN1CCC[C@@](F)(CCc2ccc3c(n2)NCCC3)C1)C(=O)O)c1cccc(F)c1Cl [Compound 62] | 50 to 250 |
| O=C(N[C@@H](CCN1CC[C@@](F)(CCc2ccc3c(n2)NCCC3)C1)C(=O)O)c1c(Cl)cccc1Cl [Compound 63] | 50 to 250 |
| O=C(N[C@@H](CCN1CC[C@](F)(CCc2ccc3c(n2)NCCC3)C1)C(=O)O)c1c(Cl)cccc1Cl [Compound 64] | 50 to 250 |
| O=C(N[C@@H](CCN1CC[C@@H](CCc2ccc3c(n2)NCCC3)C1)C(=O)O)c1cccc(-c2cscn2)c1 [Compound 65] | 50 to 250 |
| O=C(N[C@@H](CCN1CC[C@@H](CCc2ccc3c(n2)NCCC3)C1)C(=O)O)c1cccc(-c2cncs2)c1 [Compound 66] | < 50 |
| O=C(N[C@@H](CCN1CC[C@@H](CCc2ccc3c(n2)NCCC3)C1)C(=O)O)c1cccc(F)c1F [Compound 67] | < 50 |
| CC(C)(C)c1cccc(C(=O)N[C@@H](CCN2CC[C@@H](CCc3ccc4c(n3)NCCC4)C2)C(=O)O)c1 [Compound 68] | < 50 |
| Cn1cc(C(=O)N[C@@H](CCN2CC[C@@H](CCc3ccc4c(n3)NCCC4)C2)C(=O)O)cn1 [Compound 69] | 50 to 250 |
| O=C(N[C@@H](CCN1CC[C@@H](CCc2ccc3c(n2)NCCC3)C1)C(=O)O)c1ccncn1 [Compound 70] | < 50 |
| CC(C)n1cc2c(C(=O)N[C@@H](CCN3CC[C@@H](CCc4ccc5c(n4)NCCC5)C3)C(=O)O)cccc2n1 [Compound 71] | < 50 |
| CC(C)Cn1cc2c(C(=O)N[C@@H](CCN3CC[C@@H](CCc4ccc5c(n4)NCCC5)C3)C(=O)O)cccc2n1 [Compound 72] | < 50 |
| O=C(N[C@@H](CCN1CC[C@@H](CCc2ccc3c(n2)NCCC3)C1)C(=O)O)c1cc(F)cc(C(F)(F)F)c1 [Compound 76] | < 50 |
| CCCCC(=O)N1CCC[C@@H](C(=O)N[C@@H](CCN2CC[C@@H](CCc3ccc4c(n3)NCCC4)C2)C(=O)O)C1 [Compound 78] | < 50 |
| CC(C)(C)C(=O)N1CCC[C@@H](C(=O)N[C@@H](CCN2CC[C@@H](CCc3ccc4c(n3)NCCC4)C2)C(=O)O)C1 [Compound 79] | < 50 |
| Cn1nc(-c2ccccc2)c2cccc(C(=O)N[C@@H](CCN3CC[C@@H](CCc4ccc5c(n4)NCCC5)C3)C(=O)O)c21 [Compound 82] | < 50 |
| O=C(N[C@H](CCN1CC[C@@H](CCc2ccc3c(n2)NCCC3)C1)C(=O)O)c1cccc(-c2cncs2)c1 [Compound 84] | < 50 |
| O=C(N[C@H](CCN1CC[C@@H](CCc2ccc3c(n2)NCCC3)C1)C(=O)O)c1cccc(-c2cscn2)c1 [Compound 85] | < 50 |
| Cn1nccc1-c1cccc(C(=O)N[C@H](CCN2CC[C@@H](CCc3ccc4c(n3)NCCC4)C2)C(=O)O)c1 [Compound 86] | < 50 |
| Cn1cc(-c2cccc(C(=O)N[C@H](CCN3CC[C@@H](CCc4ccc5c(n4)NCCC5)C3)C(=O)O)c2)cn1 [Compound 87] | < 50 |

Results, then the molecule that gave them:

| IC50 [nM] | Compound |
| --- | --- |
| < 50 | O=C(O)[C@H](CCN1CC[C@@H](CCc2ccc3c(n2)NCCC3)C1)NC(=O)[C@@H]1CCCN1Cc1ccccc1 [Compound 36] |
| < 50 | O=C(N[C@@H](CCN1CC[C@@H](CCc2ccc3c(n2)NCCC3)C1)C(=O)O)C1CCOCC1 [Compound 38] |
| < 50 | O=C(O)[C@H](CCN1CC[C@@H](CCc2ccc3c(n2)NCCC3)C1)NC(=O)[C@@H]1CCCN1c1ccccc1 [Compound 43] |
| < 50 | CC(C)(C(=O)N[C@@H](CCN1CC[C@@H](CCc2ccc3c(n2)NCCC3)C1)C(=O)O)c1ccccc1 [Compound 44] |
| < 50 | CC(C)(Cc1ccccc1)C(=O)N[C@@H](CCN1CC[C@@H](CCc2ccc3c(n2)NCCC3)C1)C(=O)O [Compound 45] |
| < 50 | O=C(N[C@@H](CCN1CC[C@@H](CCc2ccc3c(n2)NCCC3)C1)C(=O)O)[C@H]1CCN(c2ccccn2)C1 [Compound 46] |
| < 50 | O=C(N[C@@H](CCN1CC[C@@H](CCc2ccc3c(n2)NCCC3)C1)C(=O)O)[C@@H]1CCN(c2ccccn2)C1 [Compound 47] |
| < 50 | N#Cc1cccc(C(=O)N[C@@H](CCN2CC[C@@H](CCc3ccc4c(n3)NCCC4)C2)C(=O)O)c1 [Compound 48] |
| < 50 | O=C(N[C@@H](CCN1CC[C@@H](CCc2ccc3c(n2)NCCC3)C1)C(=O)O)c1cccs1 [Compound 51] |
| < 50 | O=C(N[C@@H](CCN1CCCC(CCc2ccc3c(n2)NCCC3)C1)C(=O)O)c1ccccc1 (stereo partly drawn) [Compound 54] |
| < 50 | O=C(N[C@@H](CCN1CC[C@@H](CCc2ccc3c(n2)NCCC3)C1)C(=O)O)c1cccc(-c2ccccc2)c1 [Compound 56] |
| < 50 | CCCCC(=O)N1CCCC[C@H]1C(=O)N[C@@H](CCN1CC[C@@H](CCc2ccc3c(n2)NCCC3)C1)C(=O)O [Compound 73] |
| < 50 | O=C(O)[C@H](CCN1CC[C@@H](CCc2ccc3c(n2)NCCC3)C1)NC(=O)[C@@H]1CCCCN1C(=O)C1CCC1 [Compound 74] |
| < 50 | O=C(Cc1ccccc1Cl)N[C@@H](CCN1CC[C@@H](CCc2ccc3c(n2)NCCC3)C1)C(=O)O [Compound 75] |
| < 50 | CC(C)(O)CN1CCC[C@H]1C(=O)N[C@@H](CCN1CC[C@@H](CCc2ccc3c(n2)NCCC3)C1)C(=O)O [Compound 77] |
| < 50 | COC(=O)N1CCC[C@@H](C(=O)N[C@@H](CCN2CC[C@@H](CCc3ccc4c(n3)NCCC4)C2)C(=O)O)C1 [Compound 80] |
| 50 to 250 | O=C(O)[C@H](CCN1CC[C@@H](CCc2ccc3c(n2)NCCC3)C1)NC(=O)[C@@H]1CCN1Cc1ccccc1 [Compound 81] |
| < 50 | O=C(N[C@H](CCN1CC[C@@H](CCc2ccc3c(n2)NCCC3)C1)C(=O)O)c1cccc(-c2ccccc2)c1 [Compound 83] |
